Results published in publication PMC6731595, “The anti-parasitic agent suramin and several of its analogues are inhibitors of the DNA binding protein Mcm10” (Open Biology, 2019).

Legend:
[1] = biological target: T1, human RPA70AB (A and B DNA binding domains of RPA70) (Homo sapiens, UniProt P27694); assay: Fluorescence polarization competition assay, displacement of 5′-6FAM ssDNA probe from RPA70AB
T1 construct: recombinant human RPA70AB (181-422) in a pSV281 vector; 6xHis (TEV site) (N, cleaved yes); made in house; host or cells: Escherichia coli BL21(DE3)
T1 sequence (P27694 181-422): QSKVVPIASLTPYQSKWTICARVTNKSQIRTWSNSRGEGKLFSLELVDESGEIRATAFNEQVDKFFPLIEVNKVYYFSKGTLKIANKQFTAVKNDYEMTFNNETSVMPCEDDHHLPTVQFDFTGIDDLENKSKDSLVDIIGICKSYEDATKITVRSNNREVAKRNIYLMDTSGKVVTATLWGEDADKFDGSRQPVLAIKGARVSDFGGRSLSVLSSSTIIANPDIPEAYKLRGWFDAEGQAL
Procedure: (§1) A fluorescence polarization (FP) HTS assay was established to detect inhibitors of the binding of the 5′-6FAM 10-mer oligo probe to Mcm10. Test compounds dissolved in DMSO were added to 384-well plates (Corning 4514) using an Echo 550 acoustic dispenser (final DMSO 0.1%) to achieve a final single point screening concentration of 10 µM. Then 10 µl of 2× Xenopus internal domain Mcm10 (xMcm10-ID, final concentration 2 µM) in binding buffer (20 mM Tris HCl, 100 mM NaCl, 5% glycerol, and 0.01% triton, pH 7.5) was added using the Combi nL Multidrop dispenser. Finally, 10 µl of 2× 5′-6FAM DNA (final 12.5 nM) in binding buffer was added using the Multidrop. DMSO (0.1%, high signal) and probe only (low signal) controls were included on every plate. Plates were mixed for 2 min, incubated for 60 min at RT in the dark, and read on a CLARIOstar multimode plate reader (excitation: 482-16, emission: 530-40, dichroic filter: LP504).
(§2) The LOPAC pilot screen identified the sulfhydryl reagent 4-chloromercuribenzoic acid as an inhibitor in the fluorescence polarization (FP) assay. As there was no known Mcm10 inhibitor, 4-chloromercuribenzoic acid (30 μM) was used as a positive control on initial screening plates. Following the discovery of suramin as a Mcm10 inhibitor, suramin (7 μM) was used as a positive control on subsequent screening plates. To confirm activity, screening hits were tested in dose response experiments (8 concentrations in duplicate) using xMcm10-ID. Similar dose response experiments were conducted with suramin and its analogs to confirm activity for hMcm10-ID (1 μM) and xMcm10-FL (2 μM) and to determine selectivity relative to RPA70AB (0.4 μM). Saturation experiments for each protein were conducted using increasing concentrations of protein with a fixed probe concentration (12.5 nM). FP was measured in mP units, and ∆mP values for each well were calculated as the difference between the measured mP and the average of the “probe only” controls. […] The parallel and perpendicular mP values were also used to calculate total fluorescence intensity (TFI) determined by the sum of parallel mP + (2 x perpendicular mP). TFI was used to detect fluorescence interference by compounds [1]. […] IC50 values were calculated using the four parameter logistic equation in Prism 6.0 (GraphPad). Ki values were obtained using an online Ki calculator according to the equations of Nikolovska-Coleska (http://sw16.im.med.umich.edu/soft-ware/calc_ki/). KD values were calculated using the one site or two site binding equations in Prism 6.0 (GraphPad).

[2] = biological target: T2, full-length Xenopus Mcm10 (xMcm10-FL) (Xenopus laevis, UniProt Q5EAW4); assay: Fluorescence polarization competition assay, displacement of 5′-6FAM ssDNA probe from xMcm10-FL; format: binding; details: averages of n = 2; xMcm10-FL 2 μM
T2 construct: The full-length xMcm10 was expressed with MBP fused onto the N-terminus and 6x-His tag attached to the C-terminus; 6xHis (C); made in house; host or cells: E. coli BL21(DE3), as for the ID constructs ('as described above')
T2 sequence (Q5EAW4 1-860): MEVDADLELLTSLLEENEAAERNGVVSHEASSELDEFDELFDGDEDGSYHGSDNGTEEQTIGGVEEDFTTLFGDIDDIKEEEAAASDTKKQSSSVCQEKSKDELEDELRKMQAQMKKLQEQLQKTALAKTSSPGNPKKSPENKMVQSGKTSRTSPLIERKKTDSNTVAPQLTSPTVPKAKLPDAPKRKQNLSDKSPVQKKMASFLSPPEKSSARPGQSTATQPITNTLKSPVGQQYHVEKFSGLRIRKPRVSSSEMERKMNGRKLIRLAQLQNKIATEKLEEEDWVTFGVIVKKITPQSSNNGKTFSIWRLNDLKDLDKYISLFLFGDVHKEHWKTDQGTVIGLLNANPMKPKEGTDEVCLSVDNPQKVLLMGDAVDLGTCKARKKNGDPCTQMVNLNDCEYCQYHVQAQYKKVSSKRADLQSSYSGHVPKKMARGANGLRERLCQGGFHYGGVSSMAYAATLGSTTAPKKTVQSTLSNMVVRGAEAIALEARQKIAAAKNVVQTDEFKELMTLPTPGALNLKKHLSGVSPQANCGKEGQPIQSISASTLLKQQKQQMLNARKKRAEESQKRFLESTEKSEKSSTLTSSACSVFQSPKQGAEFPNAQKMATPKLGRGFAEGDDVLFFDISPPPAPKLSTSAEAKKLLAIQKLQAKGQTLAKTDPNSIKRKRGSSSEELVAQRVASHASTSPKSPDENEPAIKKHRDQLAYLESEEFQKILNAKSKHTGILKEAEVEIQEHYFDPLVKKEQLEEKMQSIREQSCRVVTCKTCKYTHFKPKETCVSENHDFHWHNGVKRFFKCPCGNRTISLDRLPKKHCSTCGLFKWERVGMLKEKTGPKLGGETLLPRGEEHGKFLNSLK
Procedure: as §1, §2

[3] = biological target: T3, human Mcm10 internal domain (hMcm10-ID) (Homo sapiens, UniProt Q7L590); assay: Fluorescence polarization competition assay, displacement of 5′-6FAM 10-mer ssDNA probe from hMcm10-ID; format: binding; details: mean ± s.e.m., n ≥ 3; hMcm10-ID 1 μM, probe 12.5 nM
T3 construct: hMcm10-ID (residues 237 to 436) were expressed in E. coli strain BL21(DE3); 6xHis (HRV 3C site) (N, cleaved yes); made in house; host or cells: E. coli BL21(DE3)
T3 sequence (Q7L590 237-436): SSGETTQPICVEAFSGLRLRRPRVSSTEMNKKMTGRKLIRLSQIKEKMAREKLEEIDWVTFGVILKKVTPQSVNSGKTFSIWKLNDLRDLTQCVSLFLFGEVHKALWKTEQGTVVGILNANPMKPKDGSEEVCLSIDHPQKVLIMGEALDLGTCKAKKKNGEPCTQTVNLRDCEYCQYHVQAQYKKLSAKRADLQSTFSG
Procedure: as §1, §2

hMcm10-ID = biological target: T4, hMcm10-ID (Homo sapiens, UniProt Q7L590); assay: Surface plasmon resonance binding kinetics on immobilized hMcm10-ID (Biacore S200)
T4 construct: hMcm10-ID (residues 237 to 436) were expressed in E. coli strain BL21(DE3); 6xHis (HRV 3C site) (N, cleaved yes); made in house; host or cells: E. coli BL21(DE3)
T4 sequence (Q7L590 237-436): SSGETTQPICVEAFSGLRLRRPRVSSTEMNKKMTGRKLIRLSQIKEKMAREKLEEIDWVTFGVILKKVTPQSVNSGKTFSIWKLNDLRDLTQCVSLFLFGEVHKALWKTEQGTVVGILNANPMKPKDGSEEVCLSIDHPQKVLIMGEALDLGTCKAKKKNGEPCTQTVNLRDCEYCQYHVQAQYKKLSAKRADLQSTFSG
Procedure: SPR experiments were performed using a Biacore S200 (GE Healthcare) equipped with a research-grade CM5 sensor chip. hMcm10-ID, at a concentration of 15 µg ml^−1 in 10 mM sodium acetate, pH 4.5, […], using an amine coupling kit (GE Healthcare) to either flow cell 2 or 4 following manufacturer directions. The reference flow cell (either flow cell 1 or 3) was left untreated. All compounds were dissolved in running buffer (10 mM PBS, 150 mM NaCl, 0.005% P20, pH 7.4) prior to injection over the chip surface at a flow rate of 30 µl min^−1 and at a temperature of 25°C. Zero concentration samples were injected for double referencing. Data were collected at a rate of 40 Hz and were fitted to a simple 1 : 1 interaction model (unless otherwise noted) using the global data analysis within the Biacore S200 evaluation software.

[4] = biological target: T5, Xenopus internal domain Mcm10 (xMcm10-ID) (Xenopus laevis, UniProt Q5EAW4); assay: Fluorescence polarization HTS and dose-response assay, 5′-6FAM probe binding to xMcm10-ID; details: dose-response with repurchased or purchased compound
T5 construct: xMcm10-ID (amino acid residues 229 to 427); 6xHis (HRV 3C site) (N, cleaved yes); made in house; host or cells: E. coli BL21(DE3)
T5 sequence (Q5EAW4 229-427): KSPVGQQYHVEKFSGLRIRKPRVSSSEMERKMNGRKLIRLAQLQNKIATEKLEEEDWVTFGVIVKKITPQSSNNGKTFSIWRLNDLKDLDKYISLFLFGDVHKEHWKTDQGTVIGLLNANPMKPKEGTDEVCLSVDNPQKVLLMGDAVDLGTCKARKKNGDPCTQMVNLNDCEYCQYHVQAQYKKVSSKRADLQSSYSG
Procedure: as §1, §2

[5] = system: DNA replication of sperm chromatin in Xenopus egg extracts; assay: In vitro DNA replication assay in Xenopus S-phase egg extracts ([α-32P]dGTP incorporation); format: biochemical; details: 10, 50, 150 and 300 µM
Procedure: Xenopus egg extracts were prepared according to the method of Murray. Replication of sperm chromatin in S-phase egg extracts was monitored as previously described. Compounds identified by HTS were added to replication reactions immediately prior to addition of [α-^32P]dGTP (Perkin Elmer BLU514H250UC).
To determine whether the four remaining confirmed HTS hits affected DNA replication, in vitro replication assays were performed using Xenopus S-phase egg extracts incubated with sperm chromatin [25, 34]. DNA replication was measured in the presence of bronopol, fumarprotocetraric acid, iriginol and suramin or DMSO by the incorporation of [α-^32P]dGTP. […] For this reason, further studies focused on suramin alone.
Figure 1. Suramin inhibits DNA replication in an in vitro Xenopus replication assay. HTS hits were evaluated for inhibition of [α-^32P]dGTP incorporation into DNA using a cell-free extract prepared from Xenopus eggs at increasing concentrations (10, 50, 150 and 300 µM indicated by black triangle from right to left). No chemical (–) and DMSO were used as negative controls for replication inhibition (far left and far right lanes).

Row | selectivity for hMcm10 over RPA70AB ([1]; FP) | IC50 ([1]; below lower limit of the sensitivity of the assay, read-out: IC50 value for the high affinity component, hRPA70AB) [nM] | Ki ([1]; predominant low-affinity (or only) component, mean ± s.e.m., n ≥ 3, read-out: fluorescence polarization hRPA70AB Ki2) [nM] | selectivity RPA/ hMcm10 ([1]; ratio of hRPA70AB Ki2 to hMcm10-ID Ki (FP)) | Ki [2] [nM] | Ki [3] [nM] | surface plasmon resonance hMcm10-ID kd (hMcm10-ID; 1:1 model, 6000–8000 RU, 25°C) [s^−1] | kon (hMcm10-ID; 1:1 model, 6000–8000 RU, 25°C, read-out: surface plasmon resonance hMcm10-ID ka) [M⁻¹ s⁻¹] | Kd (hMcm10-ID; calculated from association and dissociation rate constants, 1:1 model, 6000–8000 RU, read-out: surface plasmon resonance hMcm10-ID kinetic KD) [nM] | SPR binding kinetics (description of sensorgrams) (hMcm10-ID; immobilized hMcm10-ID) | Structure (SMILES) | inhibition of 5′-6FAM probe binding to xMcm10-ID (result in words) [4] | DNA replication, [α-32P]dGTP incorporation (result in words) [5]
1 | more than 10 fold | 93 | 14000 ± 400 | 32 | 1900 | 440 ± 40 | 0.59 ± 0.10 | 780000 ± 1e+09 | 740 ± 130 | predominantly rapid kinetics | O=C(Nc1cc(C(=O)Nc2ccc(S(=O)(=O)O)cc2S(=O)(=O)O)cc(C(=O)Nc2ccc(S(=O)(=O)O)cc2S(=O)(=O)O)c1)Nc1cc(C(=O)Nc2ccc(S(=O)(=O)O)cc2S(=O)(=O)O)cc(C(=O)Nc2ccc(S(=O)(=O)O)cc2S(=O)(=O)O)c1 [NF449] |  | 
2 |  |  |  |  |  |  |  |  |  |  | O=C(O)c1cc[c]([Hg][Cl])cc1 [4-chloromercuribenzoic acid] | active | 
3 |  |  |  |  |  |  |  |  |  |  | Cc1cc(O)c(C=O)c2c1C(=O)Oc1c(COC(=O)/C=C/C(=O)O)c(O)c(C(=O)O)c(C)c1O2 [fumarprotocetraric acid] | active | only suramin exhibited a dose-dependent decrease in DNA replication
